Results taken from patent US10660967B2, “Curcumin conjugates and methods of use thereof” (priority 2016, dated 2020).

Test system: carrageenan induced paw edema
Assay: Anti-inflammatory activity: acute carrageenan induced paw edema in rats
Type: in vivo, Wister rats
Details: 10 mg kg^−1 indomethacin mol equivalent; for % inhibition of edema / Mean edema thickness: intraperitoneally; for Mean edema thickness: mean ± SE; for Potency (% inhibition of edema relative to that of indomethacin reference standard): at 4 h effect
Method: The anti-inflammatory activity of the tested compounds was determined in vivo by the acute carrageenan induced paw edema standard method in rats. See, Naumov, et al., Bioorg. Med. Chem. Lett, 25: 2314-2320 (2015), Tiwari, et al., Org. Biomol. Chem, 12: 7238-7249 (2014), Girgis, et al., Eur. J. Med. Chem, 50: 1-8 (2012), Barsoum, et al., Eur. J. Med. Chem, 44: 2172-2177 (2009), Girgis, et al., Eur. J. Med. Chem, 44: 1972-1977 (2009), Girgis, et al., Eur. J. Med. Chem, 44: 1257-1264 (2009), Girgis, et al., Eur. J. Med. Chem, 44: 91-100 (2009), Girgis, et al., Eur. J. Med. Chem, 43: 2116-2121 (2008), Girgis, et al., Bioorg. Med. Chem, 14: 8527-8532 (2006), and Barsoum, et al., Bioorg. Med. Chem, 14: 3929-3937 (2006).
Adult Wister rats of either sex (pregnant female animals were excluded) weighing 120-150 g were divided into 18 groups of 6 animals each. […] The control group was given DMSO only. Carrageenan paw edema was induced by subcutaneous injection of freshly prepared 1% solution of carrageenan in saline (0.9%, 0.1 ml per rat) into subplantar tissue of the right hind paw of rats. The thickness of the paw was measured (in mm) after successive time intervals (1, 2,3,4 and 24 h) and compared with the initial hind paw thickness of each rat for determining the edema thickness. Data were collected, checked, revised and analyzed. Quantitative variables from normal distribution were expressed as means±SE “standard error”. The anti-inflammatory activity was expressed as percentage inhibition of edema thickness in treated animals in comparison with the control group according to eqn. (1)
Where, Vc and Vt are the mean of edema paw thickness for the control and tested compound treated animal groups, respectively.

Compound	% inhibition of edema (1 h)	Mean edema thickness (1 h)	% inhibition of edema (2 h)	Mean edema thickness (2 h)	% inhibition of edema (3 h)	Mean edema thickness (3 h)	% inhibition of edema (4 h)	Mean edema thickness (4 h)	% inhibition of edema (24 h)	Mean edema thickness (24 h)	Potency (% inhibition of edema relative to that of indomethacin reference standard)
COc1cc(/C=C/C(=O)CC(=O)/C=C/c2ccc(OC(=O)[C@H](C)NC(=O)OCC3c4ccccc4-c4ccccc43)c(OC)c2)ccc1OC(=O)[C@H](C)NC(=O)OCC1c2ccccc2-c2ccccc21 [Compound 14]	12%	2.12 ± 0.29 mm	23%	1.59 ± 0.15 mm	43%	1.02 ± 0.17 mm	56%	0.62 ± 0.09 mm	51%	0.41 ± 0.05 mm	64
COc1cc(/C=C/C(=O)CC(=O)/C=C/c2ccc(OC(=O)[C@@H](NC(=O)OCC3c4ccccc4-c4ccccc43)C(C)C)c(OC)c2)ccc1OC(=O)[C@@H](NC(=O)OCC1c2ccccc2-c2ccccc21)C(C)C [Compound 15]	22%	1.88 ± 0.22 mm	49%	1.05 ± 0.23 mm	50%	0.90 ± 0.17 mm	53%	0.66 ± 0.19 mm	47%	0.44 ± 0.11 mm	61
COc1cc(/C=C/C(=O)CC(=O)/C=C/c2ccc(OC(=O)[C@H](CC(C)C)NC(=O)OCC3c4ccccc4-c4ccccc43)c(OC)c2)ccc1OC(=O)[C@H](CC(C)C)NC(=O)OCC1c2ccccc2-c2ccccc21 [Compound 16]	40%	1.45 ± 0.18 mm	41%	1.22 ± 0.25 mm	48%	0.93 ± 0.20 mm	50%	0.70 ± 0.19 mm	40%	0.50 ± 0.10 mm	57
COc1cc(/C=C/C(=O)CC(=O)/C=C/c2ccc(OC(=O)[C@H](CCSC)NC(=O)OCC3c4ccccc4-c4ccccc43)c(OC)c2)ccc1OC(=O)[C@H](CCSC)NC(=O)OCC1c2ccccc2-c2ccccc21 [Compound 17]	46%	1.30 ± 0.04 mm	73%	0.56 ± 0.17 mm	75%	0.45 ± 0.18 mm	98%	0.03 ± 0.01 mm	23%	0.64 ± 0.02 mm	113
COc1cc(/C=C/C(=O)CC(=O)/C=C/c2ccc(OC(=O)[C@H](Cc3ccccc3)NC(=O)OCC3c4ccccc4-c4ccccc43)c(OC)c2)ccc1OC(=O)[C@H](Cc1ccccc1)NC(=O)OCC1c2ccccc2-c2ccccc21 [Compound 18]	10%	2.17 ± 0.24 mm	41%	1.22 ± 0.16 mm	54%	0.82 ± 0.08 mm	60%	0.56 ± 0.04 mm	5%	0.79 ± 0.02 mm	69
COc1cc(/C=C/C(=O)CC(=O)/C=C/c2ccc(OC(=O)[C@@H](C)NC(=O)OCc3ccccc3)c(OC)c2)ccc1OC(=O)[C@@H](C)NC(=O)OCc1ccccc1 [Compound 19]	82%	0.43 ± 0.08 mm	89%	0.23 ± 0.04 mm	95%	0.09 ± 0.03 mm	100%	0.00 ± 0.00 mm	49%	0.42 ± 0.06 mm	115
COc1cc(/C=C/C(=O)CC(=O)/C=C/c2ccc(OC(=O)[C@@H](CCSC)NC(=O)OCc3ccccc3)c(OC)c2)ccc1OC(=O)[C@@H](CCSC)NC(=O)OCc1ccccc1 [Compound 20]	79%	0.51 ± 0.04 mm	80%	0.41 ± 0.03 mm	85%	0.27 ± 0.01 mm	94%	0.08 ± 0.02 mm	90%	0.08 ± 0.01 mm	108
COc1cc(/C=C/C(=O)CC(=O)/C=C/c2ccc(OC(=O)[C@H](CCC(N)=O)NC(=O)OCc3ccccc3)c(OC)c2)ccc1OC(=O)[C@H](CCC(N)=O)NC(=O)OCc1ccccc1 [Compound 21]	51%	1.18 ± 0.11 mm	47%	1.09 ± 0.19 mm	45%	0.99 ± 0.09 mm	44%	0.78 ± 0.10 mm	4%	0.80 ± 0.05 mm	51
COc1cc(/C=C/C(=O)CC(=O)/C=C/c2ccc(OC(=O)CNC(=O)OC(C)(C)C)c(OC)c2)ccc1OC(=O)CNC(=O)OC(C)(C)C [Compound 22]	43%	1.37 ± 0.18 mm	44%	1.16 ± 0.14 mm	44%	1.00 ± 0.11 mm	48%	0.73 ± 0.09 mm	47%	0.44 ± 0.05 mm	55
COc1cc(/C=C/C(=O)CC(=O)/C=C/c2ccc(OC(=O)[C@H](Cc3ccccc3)NC(=O)OC(C)(C)C)c(OC)c2)ccc1OC(=O)[C@H](Cc1ccccc1)NC(=O)OC(C)(C)C [Compound 23]	39%	1.47 ± 0.16 mm	44%	1.16 ± 0.09 mm	53%	0.85 ± 0.11 mm	59%	0.58 ± 0.03 mm	51%	0.41 ± 0.02 mm	68
COc1cc(/C=C/C(=O)CC(=O)/C=C/c2ccc(OC(=O)[C@H](C)NC(=O)OC(C)(C)C)c(OC)c2)ccc1OC(=O)[C@H](C)NC(=O)OC(C)(C)C [Compound 24]	6%	2.26 ± 0.20 mm	11%	1.84 ± 0.17 mm	20%	1.44 ± 0.14 mm	28%	1.04 ± 0.18 mm	5%	0.79 ± 0.17 mm	32
COc1cc(/C=C/C(=O)CC(=O)/C=C/c2ccc(OC(=O)C(C)NC(=O)OC(C)(C)C)c(OC)c2)ccc1OC(=O)C(C)NC(=O)OC(C)(C)C (centres unmarked) [Compound 25]	11%	2.15 ± 0.14 mm	16%	1.74 ± 0.18 mm	25%	1.34 ± 0.20 mm	40%	0.84 ± 0.12 mm	29%	0.59 ± 0.09 mm	46
COc1cc(/C=C/C(=O)CC(=O)/C=C/c2ccc(OC(=O)[C@@H](C)NC(=O)OC(C)(C)C)c(OC)c2)ccc1OC(=O)[C@@H](C)NC(=O)OC(C)(C)C [Compound 26]	22%	1.87 ± 0.13 mm	29%	1.46 ± 0.21 mm	39%	1.09 ± 0.11 mm	42%	0.81 ± 0.08 mm	37%	0.52 ± 0.05 mm	48
